# Test results published in ChEMBL document CHEMBL5137008, “Recent advances of antitumor shikonin/alkannin derivatives: A comprehensive overview focusing on structural classification, synthetic approaches, and mechanisms of action” (Eur J Med Chem, 2022).
# Tests used:
# [1] = Cytotoxicity against human L02 incubated for 24 hrs by MTT assay; type: toxicity, cell-based; settings: L02 cells
# HeLa [2] = assay: Antiproliferative activity against human HeLa cells assessed as inhibition of cell proliferation incubated for 24 hrs by CCK-8 assay; type: functional, cell-based
# [3] = Cytotoxicity against human MCF-10A assessed as inhibition of cell growth incubated for 24 hrs in presence of foetal bovine serum by MTT assay; type: toxicity, cell-based; settings: MCF-10A cells
# HepG2 [4] = assay: Antiproliferative activity against human HepG2 cells assessed as inhibition of cell proliferation incubated for 24 hrs by MTT assay; type: functional, cell-based; settings: HepG2, 24 h
# [5] = Cytotoxicity against African green monkey VERO cells assessed as inhibition of cell growth incubated for 24 hrs by MTT assay; type: toxicity, cell-based, Chlorocebus sabaeus
# [6] = Antiproliferative activity against human BGC cells assessed as inhibition of cell proliferation incubated for 20 hrs by MTT assay; type: functional, cell-based
# HeLa [7] = assay: Antiproliferative activity against human HeLa cells assessed as inhibition of cell proliferation incubated for 24 hrs by MTT assay; type: functional, cell-based
# Fibroblast = assay: Cytotoxicity against human skin fibroblast cells incubated for 72 hrs by MTT assay; type: functional, cell-based
# [8] = Antitubulin activity against bovine brain tubulin polymerization preincubated with compound followed by GTP addition and measured after 20 mins by turbidimetry-based spectrophotometric method; parameters: species or system Bos taurus
# HepG2 [9] = assay: Antiproliferative activity against human HepG2 cells incubated for 24 hrs by MTT assay; type: functional, cell-based; settings: HepG2, 24 h
# [10] = Cytotoxicity against African green monkey Vero cells incubated for 24 hrs by MTT assay; type: toxicity, cell-based, Chlorocebus sabaeus
# A549 [11] = assay: Anticancer activity against human A549 cells assessed as inhibition of cell growth incubated for 72 hrs by MTT assay; type: functional, cell-based; settings: A549, 72 h
# MG-63 [12] = assay: Antiproliferative activity against human MG-63 cells incubated for 24 hrs by MTT assay; type: functional, cell-based; settings: MG-63, 24 h
# MDA-MB-231 [13] = assay: Antiproliferative activity against human MDA-MB-231 cells assessed as inhibition of cell proliferation incubated for 24 hrs by CCK-8 assay; type: functional, cell-based; settings: MDA-MB-231, 24 h
# MDA-MB-231 [14] = assay: Antiproliferative activity against human MDA-MB-231 cells incubated for 24 hrs by MTT assay; type: functional, cell-based; settings: MDA-MB-231, 24 h
# MDA-MB-231 [15] = assay: Antiproliferative activity against human MDA-MB-231 cells assessed as inhibition of cell growth incubated for 24 hrs in presence of foetal bovine serum by MTT assay; type: functional, cell-based; settings: MDA-MB-231, 24 h
# Ca9-22 [16] = assay: Cytotoxicity against human Ca9-22 cells assessed as reduction in cell viability incubated for 24 hrs by MTT assay; type: functional, cell-based; settings: Ca9-22, 24 h
# MCF7 [17] = assay: Antiproliferative activity against human MCF7 cells assessed as inhibition of cell growth incubated for 24 hrs by MTT assay; type: functional, cell-based; settings: MCF7, 24 h
# HCT-15 = assay: Anticancer activity against human HCT-15 cells incubated for 72 hrs by MTT assay; type: functional, cell-based; settings: HCT-15, 72 h
# SW872 = assay: Anticancer activity against human SW872 cells assessed as inhibition of cell growth incubated for 72 hrs by MTT assay; type: functional, cell-based; settings: SW872, 72 h
# MDA-MB-231 [18] = assay: Antiproliferative activity against human MDA-MB-231 cells assessed as inhibition of cell growth incubated for 24 hrs by MTT assay; type: functional, cell-based; settings: MDA-MB-231, 24 h
# MG-63 [19] = assay: Anticancer activity against human MG-63 cells assessed as inhibition of cell proliferation incubated for 48 hrs by MTT assay; type: functional, cell-based; settings: MG-63, 48 h
# HeLa [20] = assay: Antiproliferative activity against human HeLa cells assessed as inhibition of cell proliferation incubated for 20 hrs by MTT assay; type: functional, cell-based
# [21] = Cytotoxicity against human HEK293T cells assessed as inhibition of cell growth incubated for 24 hrs in presence of foetal bovine serum by MTT assay; type: toxicity, cell-based, HEK-293T
# Ca9-22 [22] = assay: Cytotoxicity against human Ca9-22 cells assessed as reduction in cell viability incubated for 48 hrs by MTT assay; type: functional, cell-based; settings: Ca9-22, 48 h
# [23] = Cytotoxicity against human MCF-10A incubated for 24 hrs by MTT assay; type: toxicity, cell-based; settings: MCF-10A cells
# [24] = Cytotoxicity against human L02 cells assessed as inhibition of cell growth incubated for 24 hrs by MTT assay; type: toxicity, cell-based
# BT-474 = assay: Antiproliferative activity against human BT-474 cells assessed as inhibition of cell growth incubated for 24 hrs in presence of foetal bovine serum by MTT assay; type: functional, cell-based; settings: BT-474, 24 h
# MGC-803 = assay: Anticancer activity against human MGC-803 cells incubated for 72 hrs by MTT assay; type: functional, cell-based; settings: MGC-803, 72 h
# HepG2 [25] = assay: Anticancer activity against human HepG2 cells assessed as inhibition of cell growth incubated for 24 hrs by MTT assay; type: functional, cell-based; settings: HepG2, 24 h
# HepG2 [26] = assay: Antiproliferative activity against human HepG2 cells assessed as inhibition of cell proliferation incubated for 20 hrs by MTT assay; type: functional, cell-based; settings: HepG2, 20 h
# A549 [27] = assay: Antiproliferative activity against human A549 cells assessed as inhibition of cell proliferation incubated for 24 hrs by CCK-8 assay; type: functional, cell-based; settings: A549, 24 h
# SK-BR-3 = assay: Antiproliferative activity against human SK-BR-3 cells assessed as inhibition of cell growth incubated for 24 hrs in presence of foetal bovine serum by MTT assay; type: functional, cell-based; settings: SK-BR-3, 24 h
# A549 [28] = assay: Antiproliferative activity against human A549 cells assessed as inhibition of cell proliferation incubated for 20 hrs by MTT assay; type: functional, cell-based; settings: A549, 20 h
# [29] = Anticancer activity against human A875 cells assessed as inhibition of cell growth incubated for 72 hrs by MTT assay; type: functional, cell-based; settings: A875, 72 h
# A549 [30] = assay: Antiproliferative activity against human A549 cells assessed as inhibition of cell growth incubated for 24 hrs in presence of foetal bovine serum by MTT assay; type: functional, cell-based; settings: A549, 24 h
# [31] = Cytotoxicity against human L02 cells assessed as reduction in cell viability incubated for 24 hrs by MTT assay; type: toxicity, cell-based
# HCT-8 = assay: Antiproliferative activity against human HCT-8 cells assessed as inhibition of cell proliferation incubated for 24 hrs by CCK-8 assay; type: functional, cell-based; settings: HCT-8, 24 h
# MDA-MB-436 = assay: Antiproliferative activity against human MDA-MB-436 cells assessed as inhibition of cell growth incubated for 24 hrs in presence of foetal bovine serum by MTT assay; type: functional, cell-based; settings: MDA-MB-436, 24 h
# [32] = Cytotoxicity against human L02 cells assessed as inhibition of cell growth incubated for 24 hrs in presence of foetal bovine serum by MTT assay; type: toxicity, cell-based
# MCF7 [33] = assay: Anticancer activity against human MCF7 cells incubated for 72 hrs by MTT assay; type: functional, cell-based; settings: MCF7, 72 h
# A549 [34] = assay: Antiproliferative activity against human A549 cells assessed as reduction in cell viability incubated for 24 hrs by MTT assay; type: functional, cell-based; settings: A549, 24 h
# HepG2 [35] = assay: Antiproliferative activity against human HepG2 cells assessed as reduction in cell viability incubated for 24 hrs by MTT assay; type: functional, cell-based; settings: HepG2, 24 h
# MCF7 [36] = assay: Antiproliferative activity against human MCF7 cells assessed as inhibition of cell proliferation incubated for 24 hrs by CCK-8 assay; type: functional, cell-based; settings: MCF7, 24 h
# [37] = Inhibition of bovine brain tubulin polymerization preincubated with compound followed by GTP addition and measured after 20 mins by turbidimetry-based spectrophotometric method; parameters: species or system Bos taurus
# MDA-MB-468 = assay: Antiproliferative activity against human MDA-MB-468 cells assessed as inhibition of cell growth incubated for 24 hrs in presence of foetal bovine serum by MTT assay; type: functional, cell-based; settings: MDA-MB-468, 24 h
structure (smiles),measurement,setting,value
CC(C)=CC[C@@H](O)C1=CC(=O)c2c(O)ccc(O)c2C1=O [SHIKONIN],IC50 at 24 h,[1],83.8 µM
same,IC50,HeLa [2],11.1 µM
same,IC50 at 24 h,[3],23.5 µM
same,IC50,HepG2 [4],9.36 µM
same,IC50 at 24 h,[5],6.76 µM
same,IC50,[6],2.2 µM
same,IC50,HeLa [7],5.75 µM
same,IC50,Fibroblast,1.24 µM
same,IC50,[8],15.2 µM
same,IC50,HepG2 [9],2.73 µM
same,IC50 at 24 h,[10],6.76 µM
same,IC50,A549 [11],1.8 µM
same,IC50,MG-63 [12],7.36 µM
same,IC50,MDA-MB-231 [13],7.62 µM
same,IC50,MDA-MB-231 [14],108 µM
same,IC50,MDA-MB-231 [15],2.88 µM
same,IC50,Ca9-22 [16],13.6 µM
same,IC50,MCF7 [17],7.75 µM
same,IC50,HCT-15,0.94 µM
same,IC50,SW872,0.76 µM
same,IC50,MDA-MB-231 [18],8.98 µM
same,IC50,MG-63 [19],5.67 µM
same,IC50,HeLa [20],3.11 µM
same,IC50 at 24 h,[21],9.27 µM
same,IC50,Ca9-22 [22],12.8 µM
same,IC50 at 24 h,[23],93.4 µM
same,IC50 at 24 h,[24],3.26 µM
same,IC50,BT-474,5.74 µM
same,IC50,MGC-803,1.28 µM
same,IC50,HepG2 [25],0.42 µM
same,IC50,HepG2 [26],0.92 µM
same,IC50,A549 [27],7.73 µM
same,IC50,SK-BR-3,3.75 µM
same,IC50,A549 [28],2.51 µM
same,IC50,[29],0.58 µM
same,IC50,A549 [30],11.7 µM
same,IC50 at 24 h,[31],10.5 µM
same,IC50,HCT-8,9.2 µM
same,IC50,MDA-MB-436,3.61 µM
same,IC50 at 24 h,[32],10.5 µM
same,IC50,MCF7 [33],2.11 µM
same,IC50,A549 [34],1.71 µM
same,IC50,HepG2 [35],1.29 µM
same,IC50,MCF7 [36],9.32 µM
same,IC50,[37],30.2 µM
same,IC50,MDA-MB-468,3.28 µM
